Article PMC7253723, “Chain-End Modifications and Sequence Arrangements of Antimicrobial Peptoids for Mediating Activity and Nano-Assembly” (Frontiers in Chemistry, 2020)
Where two headings read alike, the source gives them in different places. Square brackets hold non-standard residues; d marks the D form. Peptide text beside a SMILES is read from it. * marks the point of attachment. N(1-naphthylmethyl)Gly = O=C(O)CNCc1cccc2ccccc12; N(4-MeBn)Gly = Cc1ccc(CNCC(=O)O)cc1; Palmitoyl = CCCCCCCCCCCCCCCC(=O)*; Nspe = C[C@H](NCC(=O)O)c1ccccc1; Nonanoyl = CCCCCCCCC(=O)*; AEEA = NCCOCCOCC(=O)O; NBuGly = CCCCNCC(=O)O; Nlys = NCCCCNCC(=O)O

What was measured:
[1] = system: Escherichia coli (ATCC 25922); format: cell-based
Protocol: (§1) Technical triplicates (n = 3) or more of samples at each concentration were analyzed.

[2] = system: Pseudomonas aeruginosa (PA01); format: cell-based
Protocol: as §1

[3] = system: Staphylococcus aureus (NCTC 4135); format: cell-based
Protocol: as §1

[4] = Critical aggregation concentration (CAC) Nile red fluorescence assay; format: physicochemical; conditions: Nile red fluorescence (~10 nM NR in water), lipopeptoids 2.5 × 10^-2 to 1 wt.%, excitation 552 nm, peak around 610 nm, room temperature; inflection in emission intensity
Protocol: Nile red (NR) fluorescence was used to measure critical aggregation concentration (CAC) for the synthesized lipopeptoids. Lipopeptoids were dissolved at 2.5 × 10^−2 to 1 wt.% in a dilute solution of Nile red (0.25 μg/100 mL, i.e. ~10 nM concentration) prepared in water. NR was excited at 552 nm and emission was recorded at room temperature in the range 550–750 nm using a 10.0 × 5.0 mm^2 quartz cell (Jasco spectrofluorimeter FP-6500). The intensity of the peak centered around 610 nm is shown in the data presented in Section results and discussion.
We first examined with a CAC assay whether coupling a hydrophobic tail to AMPMs and inserting the kk and EG2 components is a viable design for generating self-assembling lipopeptoids. The CAC measures the concentration above which hydrophobic pockets (e.g., lipophilic cores of micelles) are formed, and lower CACs indicate higher propensities of self-assembly. In our experiments, the CAC is indicated by an inflection in the increase in emission intensity of a lipophilic fluorophore tracer (Nile Red) that emits more strongly when partitioned into hydrophobic lower dielectric environments (see Figure S6 for an example analysis).

[5] = MH broth microdilution (CLSI M07-A10), ~5 × 10^5 CFU/mL, overnight 37°C, OD 600 nm, MIC = concentration with OD halfway between minimum and maximum, sigmoidal fit ± SD, n = 3 or more, maximum tested 100 μM
[6] = PA01, MH broth microdilution (CLSI M07-A10), ~5 × 10^5 CFU/mL, overnight 37°C, OD 600 nm, MIC = concentration with OD halfway between minimum and maximum, sigmoidal fit ± SD, n = 3 or more, maximum tested 100 μM

Antimicrobial activity (MIC) E. coli [1] | Antimicrobial activity (MIC) P. aeruginosa [2] | Antimicrobial activity (MIC) S. aureus [3] | Structure (SMILES) | Antimicrobial activity (MIC) E. coli [1, 5] | Antimicrobial activity (MIC) P. aeruginosa [2, 6] | Antimicrobial activity (MIC) S. aureus [3, 5] | CAC [4]
7 ± 0.3 µM | 19 ± 0.4 µM | 7 ± 0.1 µM | CCCCN(CC(=O)N(CCCCN)CC(=O)N(CCCCN)CC(=O)N(CCCCN)CC(=O)N(CCCCN)CC(N)=O)C(=O)CN(Cc1cccc2ccccc12)C(=O)CN(Cc1ccc(C)cc1)C(=O)CNCc1cccc2ccccc12 [4k, reference compound] (H-[N(1-naphthylmethyl)Gly][N(4-MeBn)Gly][N(1-naphthylmethyl)Gly][NBuGly][Nlys][Nlys][Nlys][Nlys]-NH2) |  |  |  | 
 |  |  | C[C@@H](c1ccccc1)N(CC(N)=O)C(=O)CN(C(=O)CN(CCCCN)C(=O)CN(C(=O)CN(C(=O)CNCCCCN)[C@@H](C)c1ccccc1)[C@@H](C)c1ccccc1)[C@@H](C)c1ccccc1 [(kss)2, reference compound] (H-[Nlys][Nspe][Nspe][Nlys][Nspe][Nspe]-NH2) | >100 µM | 44 ± 2 µM | 41 ± 2 µM | 
4 ± 0.2 µM | 15 ± 1 µM | 2 ± 0.2 µM | C[C@@H](c1ccccc1)N(CC(N)=O)C(=O)CN(C(=O)CN(CCCCN)C(=O)CN(C(=O)CN(C(=O)CN(CCCCN)C(=O)CN(C(=O)CN(C(=O)CNCCCCN)[C@@H](C)c1ccccc1)[C@@H](C)c1ccccc1)[C@@H](C)c1ccccc1)[C@@H](C)c1ccccc1)[C@@H](C)c1ccccc1 [(kss)3, reference compound] (H-[Nlys][Nspe][Nspe][Nlys][Nspe][Nspe][Nlys][Nspe][Nspe]-NH2) |  |  |  | 
 |  |  | C[C@@H](c1ccccc1)N(CC(N)=O)C(=O)CN(C(=O)CN(CCCCN)C(=O)CN(C(=O)CN(C(=O)CN(CCCCN)C(=O)CN(C(=O)CN(C(=O)CN(CCCCN)C(=O)CN(C(=O)CN(C(=O)CNCCCCN)[C@@H](C)c1ccccc1)[C@@H](C)c1ccccc1)[C@@H](C)c1ccccc1)[C@@H](C)c1ccccc1)[C@@H](C)c1ccccc1)[C@@H](C)c1ccccc1)[C@@H](C)c1ccccc1 [(kss)4, reference compound] (H-[Nlys][Nspe][Nspe][Nlys][Nspe][Nspe][Nlys][Nspe][Nspe][Nlys][Nspe][Nspe]-NH2) | 6 ± 0.4 µM | 16 ± 0.3 µM | 4 ± 0.3 µM | 
 |  |  | CCCCCCCCC(=O)NCCOCCOCC(=O)N(CC(=O)N(CC(=O)N(CC(=O)N(CCCC)CC(=O)N(CCCCN)CC(=O)N(CCCCN)CC(=O)N(CCCCN)CC(=O)N(CCCCN)CC(N)=O)Cc1cccc2ccccc12)Cc1ccc(C)cc1)Cc1cccc2ccccc12 [C8-EG2-4k] ({Nonanoyl-AEEA}-[N(1-naphthylmethyl)Gly][N(4-MeBn)Gly][N(1-naphthylmethyl)Gly][NBuGly][Nlys][Nlys][Nlys][Nlys]-NH2) | 17 ± 1 µM | 16 ± 2 µM | 18 ± 3 µM | 2500 ± 350 µM
74 ± 4 µM | 41 ± 2 µM | 8 ± 0.3 µM | CCCCCCCCC(=O)NCCOCCOCC(=O)N(CC(=O)N(CC(=O)N(CC(=O)N(CCCC)CC(=O)N(CCCCN)CC(=O)N(CCCCN)CC(=O)N(CCCCN)CC(=O)N(CCCCN)CC(=O)N(CCCCN)CC(N)=O)Cc1cccc2ccccc12)Cc1ccc(C)cc1)Cc1cccc2ccccc12 [C8-EG2-5k] ({Nonanoyl-AEEA}-[N(1-naphthylmethyl)Gly][N(4-MeBn)Gly][N(1-naphthylmethyl)Gly][NBuGly][Nlys][Nlys][Nlys][Nlys][Nlys]-NH2) |  |  |  | 1600 ± 390 µM
 |  |  | CCCCCCCCC(=O)NCCOCCOCC(=O)N(CCCCN)CC(=O)N(CC(=O)N(CC(=O)N(CCCCN)CC(=O)N(CC(=O)N(CC(=O)N(CCCCN)CC(=O)N(CCCCN)CC(N)=O)[C@@H](C)c1ccccc1)[C@@H](C)c1ccccc1)[C@@H](C)c1ccccc1)[C@@H](C)c1ccccc1 [C8-EG2-(kss)2-kk] ({Nonanoyl-AEEA}-[Nlys][Nspe][Nspe][Nlys][Nspe][Nspe][Nlys][Nlys]-NH2) | 18 ± 3 µM | 13 ± 3 µM | 9 ± 1 µM | 200 ± 37 µM
 |  |  | CCCCCCCCC(=O)NCCOCCOCC(=O)N(CCCCN)CC(=O)N(CC(=O)N(CC(=O)N(CCCCN)CC(=O)N(CC(=O)N(CC(=O)N(CCCCN)CC(=O)N(CC(=O)N(CC(=O)N(CCCCN)CC(=O)N(CCCCN)CC(N)=O)[C@@H](C)c1ccccc1)[C@@H](C)c1ccccc1)[C@@H](C)c1ccccc1)[C@@H](C)c1ccccc1)[C@@H](C)c1ccccc1)[C@@H](C)c1ccccc1 [C8-EG2-(kss)3-kk] ({Nonanoyl-AEEA}-[Nlys][Nspe][Nspe][Nlys][Nspe][Nspe][Nlys][Nspe][Nspe][Nlys][Nlys]-NH2) | 2 ± 0.3 µM | 6 ± 2 µM | 3 ± 1 µM | 270 ± 30 µM
 |  |  | CCCCCCCCC(=O)NCCOCCOCC(=O)N(CC(=O)N(CCCCN)CC(=O)N(CC(=O)N(CCCCN)CC(=O)N(CC(=O)N(CCCCN)CC(=O)N(CCCC)CC(=O)N(CCCCN)CC(N)=O)Cc1cccc2ccccc12)Cc1ccc(C)cc1)Cc1cccc2ccccc12 [C8-EG2-kykbk] ({Nonanoyl-AEEA}-[N(1-naphthylmethyl)Gly][Nlys][N(4-MeBn)Gly][Nlys][N(1-naphthylmethyl)Gly][Nlys][NBuGly][Nlys]-NH2) | 11 ± 4 µM | 15 ± 3 µM | 2 ± 0.2 µM | 1900 ± 200 µM
 |  |  | CCCCCCCCCCCCCCCC(=O)NCCOCCOCC(=O)N(CC(=O)N(CC(=O)N(CC(=O)N(CCCC)CC(=O)N(CCCCN)CC(=O)N(CCCCN)CC(=O)N(CCCCN)CC(=O)N(CCCCN)CC(N)=O)Cc1cccc2ccccc12)Cc1ccc(C)cc1)Cc1cccc2ccccc12 [C15-EG2-4k] ({Palmitoyl-AEEA}-[N(1-naphthylmethyl)Gly][N(4-MeBn)Gly][N(1-naphthylmethyl)Gly][NBuGly][Nlys][Nlys][Nlys][Nlys]-NH2) |  |  |  | 320 ± 24 µM
 |  |  | CCCCCCCCCCCCCCCC(=O)NCCOCCOCC(=O)N(CC(=O)N(CC(=O)N(CC(=O)N(CCCC)CC(=O)N(CCCCN)CC(=O)N(CCCCN)CC(=O)N(CCCCN)CC(=O)N(CCCCN)CC(=O)N(CCCCN)CC(N)=O)Cc1cccc2ccccc12)Cc1ccc(C)cc1)Cc1cccc2ccccc12 [C15-EG2-5k] ({Palmitoyl-AEEA}-[N(1-naphthylmethyl)Gly][N(4-MeBn)Gly][N(1-naphthylmethyl)Gly][NBuGly][Nlys][Nlys][Nlys][Nlys][Nlys]-NH2) |  |  |  | 360 ± 25 µM
 |  |  | CCCCCCCCCCCCCCCC(=O)NCCOCCOCC(=O)N(CC(=O)N(CCCCN)CC(=O)N(CC(=O)N(CCCCN)CC(=O)N(CC(=O)N(CCCCN)CC(=O)N(CCCC)CC(=O)N(CCCCN)CC(N)=O)Cc1cccc2ccccc12)Cc1ccc(C)cc1)Cc1cccc2ccccc12 [C15-EG2-kykbk] ({Palmitoyl-AEEA}-[N(1-naphthylmethyl)Gly][Nlys][N(4-MeBn)Gly][Nlys][N(1-naphthylmethyl)Gly][Nlys][NBuGly][Nlys]-NH2) |  |  |  | 410 ± 32 µM
15 ± 1 µM | 20 ± 1 µM | 9 ± 0.4 µM | CCCCN(CC(=O)N(CCCCN)CC(N)=O)C(=O)CN(CCCCN)C(=O)CN(Cc1cccc2ccccc12)C(=O)CN(CCCCN)C(=O)CN(Cc1ccc(C)cc1)C(=O)CN(CCCCN)C(=O)CNCc1cccc2ccccc12 [Kykbk, reference compound] (H-[N(1-naphthylmethyl)Gly][Nlys][N(4-MeBn)Gly][Nlys][N(1-naphthylmethyl)Gly][Nlys][NBuGly][Nlys]-NH2) |  |  |  | 
